In the Kinase Knowledgebase extract (Sharma et al. 2016):

Molecular target: MAPK14 (human) (UniProt Q16539)
Experiment: Inhibition of MAPK14 Kinase Activity

MAPK14 (human), sequence (Q16539 whole entry, looked up): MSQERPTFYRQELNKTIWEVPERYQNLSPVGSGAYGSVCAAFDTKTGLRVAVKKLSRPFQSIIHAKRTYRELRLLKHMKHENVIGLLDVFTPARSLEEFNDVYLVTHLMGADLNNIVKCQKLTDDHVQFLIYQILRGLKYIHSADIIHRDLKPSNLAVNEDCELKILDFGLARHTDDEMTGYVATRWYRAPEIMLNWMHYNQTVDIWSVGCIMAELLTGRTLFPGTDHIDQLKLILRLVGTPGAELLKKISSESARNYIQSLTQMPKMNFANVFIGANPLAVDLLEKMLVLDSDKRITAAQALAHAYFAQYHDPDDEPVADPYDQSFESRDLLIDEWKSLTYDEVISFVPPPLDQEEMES

## CCNC(=O)c1cc(F)c(C)c(-c2ccc3c(-c4cccnc4)n[nH]c3c2)c1
  IC50: < 10 µM

## Cc1cccc(-n2ncc3cc(-c4cc(C(=O)NC5CC5)cc(F)c4C)ccc32)c1
  IC50: < 10 µM

## Cc1c(F)cc(C(=O)NC(C)C)cc1-c1ccc2c(cnn2-c2ccccc2)c1
  IC50: < 10 µM

## Cc1c(F)cc(C(=O)NC2CC2)cc1-c1ccc2c(cnn2Cc2ccncc2)c1
  IC50: < 10 µM

## CCNC(=O)c1cc(F)c(C)c(-c2ccc3c(-c4ncccn4)n[nH]c3c2)c1
  IC50: < 10 µM

## Cc1c(F)cc(C(=O)Nc2ncccn2)cc1-c1ccc2c(cnn2-c2ccccc2)c1
  IC50: < 10 µM

## Cc1c(F)cc(C(=O)Nc2cc[nH]n2)cc1-c1ccc2c(-c3ccc(F)cc3)n[nH]c2c1
  IC50: < 10 µM

## Cc1c(F)cc(C(=O)NC2CC2)cc1-c1ccc2c(cnn2Cc2cccc[n+]2[O-])c1
  IC50: < 10 µM

## CNC(=O)c1cc(F)c(C)c(-c2ccc3c(cnn3-c3ccccc3)c2)c1
  IC50: < 10 µM

## Cc1c(F)cc(C(=O)NC2CC2)cc1-c1ccc2c(ccn2-c2ccccn2)c1
  IC50: < 10 µM

## Cc1c(F)cc(C(=O)NC2CC2)cc1-c1ccc2c(cnn2-c2ccc(S(C)(=O)=O)cc2)c1
  IC50: < 10 µM

## Cc1c(F)cc(C(=O)NC2CC2)cc1-c1ccc2c(cnn2-c2ccc(N3CCOCC3)cc2)c1
  IC50: < 10 µM

## Cc1c(F)cc(C(=O)NC2CC2)cc1-c1ccc2c(cnn2Cc2ccc(C(F)(F)F)cc2)c1
  IC50: < 10 µM

## Cc1c(F)cc(C(=O)Nc2cccnn2)cc1-c1ccc2c(cnn2-c2ccccc2)c1
  IC50: < 10 µM

## CCNC(=O)c1ccc(C)c(-c2ccc3c(-c4ccc(OCC)cc4)n[nH]c3c2)c1
  IC50: < 10 µM

## Cc1c(F)cc(C(=O)NC2CC2)cc1-c1ccc2c(cnn2-c2cc(=O)[nH]cn2)c1
  IC50: < 10 µM

## CCNC(=O)c1cc(F)c(C)c(-c2ccc3c(-c4cccnc4OC)n[nH]c3c2)c1
  IC50: < 10 µM

## Cc1c(F)cc(C(N)=O)cc1-c1ccc2c(cnn2-c2ccccc2)c1
  IC50: < 10 µM

## Cc1ccc(C(=O)NC2CCC2)cc1-c1ccc2c(cnn2-c2ccc(F)cc2)c1
  IC50: < 10 µM

## Cc1c(F)cc(C(=O)NC2CC2)cc1-c1ccc2c(cnn2-c2ccc(NCCN(C)C)cc2)c1
  IC50: < 10 µM

## Cc1c(F)cc(C(=O)NC2CC2)cc1-c1ccc2c(cnn2Cc2ccccn2)c1
  IC50: < 10 µM

## CCn1nccc1NC(=O)c1cc(F)c(C)c(-c2ccc3c(-c4ccc(F)cc4)n[nH]c3c2)c1
  IC50: < 10 µM

## COc1ccc(C2N=Nc3cc(-c4cc(C(=O)NC5CC5)ccc4C)ccc32)cc1 (configuration not stated)
  IC50: < 10 µM

## Cc1ccc(C(=O)Nc2c(C)noc2C)cc1-c1ccc2c(-c3ccc(F)cc3)n[nH]c2c1
  IC50: < 10 µM

## CCNC(=O)c1ccc(C)c(-c2ccc3c(-c4ccc(F)cc4)n[nH]c3c2)c1
  IC50: < 10 µM

## COCCNc1ccc(-n2ncc3cc(-c4cc(C(=O)NC5CC5)cc(F)c4C)ccc32)cc1
  IC50: < 10 µM

## Cc1cc(Cn2ncc3cc(-c4cc(C(=O)NC5CC5)cc(F)c4C)ccc32)no1
  IC50: < 10 µM

## Cc1cnn(C)c1NC(=O)c1cc(F)c(C)c(-c2ccc3c(-c4ccc(F)cc4)n[nH]c3c2)c1
  IC50: < 10 µM

## Cc1c(F)cc(C(=O)NCC2CC2)cc1-c1ccc2c(cnn2-c2ccccc2)c1
  IC50: < 10 µM

## Cc1c(F)cc(C(=O)NC2CC2)cc1-c1ccc2c(cnn2-c2ccc(C(F)(F)F)cc2)c1
  IC50: < 10 µM

## CCCNC(=O)c1cc(F)c(C)c(-c2ccc3c(cnn3-c3ccccc3)c2)c1
  IC50: < 10 µM

## Cc1c(F)cc(C(=O)NC2CC2)cc1-c1ccc2c(ccn2-c2cccc(C#N)c2)c1
  IC50: < 10 µM

## CCNC(=O)c1cc(F)c(C)c(-c2ccc3c(cnn3-c3ccccc3)c2)c1
  IC50: < 10 µM

## Cc1c(F)cc(C(=O)NC2CC2)cc1-c1ccc2c(cnn2-c2ccc(Br)cc2)c1
  IC50: < 10 µM

## CCNC(=O)c1cc(F)c(C)c(-c2ccc3c(-c4ccc(F)cc4C)n[nH]c3c2)c1
  IC50: < 10 µM

## Cc1c(F)cc(C(=O)NC2CC2)cc1-c1ccc2c(cnn2-c2ccc(NCC(O)CO)cc2)c1 (configuration not stated)
  IC50: < 10 µM

## CCNC(=O)c1ccc(C)c(-c2ccc3c(-c4ccc(OC)cc4)n[nH]c3c2)c1
  IC50: < 10 µM

## Cc1c(F)cc(C(=O)NC2CCC2)cc1-c1ccc2c(cnn2-c2ccccc2)c1
  IC50: < 10 µM

## Cc1c(F)cc(C(=O)NC2CC2)cc1-c1ccc2c(cnn2-c2ccc(NCC3CCCO3)cc2)c1 (configuration not stated)
  IC50: < 10 µM

## CNC(=O)Cc1ccc(-n2ncc3cc(-c4cc(C(=O)NC5CC5)cc(F)c4C)ccc32)cc1
  IC50: < 10 µM

## CCNC(=O)c1cc(F)c(C)c(-c2ccc3c(-c4cnc(C)n4C)n[nH]c3c2)c1
  IC50: < 10 µM

## Cc1ccc(C(=O)NC2CC2)cc1-c1ccc2c(-c3ccc(F)cc3)n[nH]c2c1
  IC50: < 10 µM

## CCNC(=O)c1cc(F)c(C)c(-c2ccc3c(-c4ccc(OC)nc4)n[nH]c3c2)c1
  IC50: < 10 µM

## CCNC(=O)c1cc(F)c(C)c(-c2ccc3c(-c4cccc[n+]4[O-])n[nH]c3c2)c1
  IC50: < 10 µM

## Cc1c(F)cc(C(=O)NC2CC2)cc1-c1ccc2c(cnn2Cc2cccnc2)c1
  IC50: < 10 µM

## CCNC(=O)c1cc(F)c(C)c(-c2ccc3c(-c4ccc(Cl)cc4)n[nH]c3c2)c1
  IC50: < 10 µM

## Cc1c(F)cc(C(=O)NC2CC2)cc1-c1ccc2c(cnn2-c2ccc(NC3CCOCC3)cc2)c1
  IC50: < 10 µM

## Cc1c(F)cc(C(=O)NC2CC2)cc1-c1ccc2c(cnn2-c2ccc(F)cc2)c1
  IC50: < 10 µM

## Cc1ccc(C(=O)NC2CC2)cc1-c1ccc2c(cnn2-c2ccc(F)cc2)c1
  IC50: < 10 µM

## CCNC(=O)c1ccc(C)c(-c2ccc3c(-c4cncnc4)n[nH]c3c2)c1
  IC50: < 10 µM

## Cc1c(F)cc(C(=O)NC2CC2)cc1-c1ccc2c(cnn2-c2ccccc2)c1
  IC50: < 10 µM

## Cc1c(F)cc(C(=O)NC2CCCC2)cc1-c1ccc2c(cnn2-c2ccccc2)c1
  IC50: < 10 µM

## CCNC(=O)c1cc(F)c(C)c(-c2ccc3c(-c4c(C)noc4C)n[nH]c3c2)c1
  IC50: < 10 µM

## CCNC(=O)c1ccc(C)c(-c2ccc3c(-c4ccc(F)nc4)n[nH]c3c2)c1
  IC50: < 10 µM

## Cc1ccc(C(=O)Nc2ccc(F)cc2)cc1-c1ccc2c(cnn2-c2ccccc2)c1
  IC50: < 10 µM

## Cc1c(F)cc(C(=O)Nc2cc[nH]n2)cc1-c1ccc2c(cnn2-c2ccccc2)c1
  IC50: < 10 µM

## Cc1c(F)cc(C(=O)NC2CC2)cc1-c1ccc2c(cnn2-c2ccc(NCC3CCCCC3)cc2)c1
  IC50: < 10 µM

## Cc1c(F)cc(C(=O)NC2CC2)cc1-c1ccc2c(cnn2Cc2ccccc2)c1
  IC50: < 10 µM

## CCNC(=O)c1ccc(C)c(-c2ccc3c(-c4cnccn4)n[nH]c3c2)c1
  IC50: < 10 µM

## Cc1ccc(C(=O)Nc2c(C)cnn2C)cc1-c1ccc2c(-c3ccc(F)cc3)n[nH]c2c1
  IC50: < 10 µM

## CCNC(=O)c1cc(F)c(C)c(-c2ccc3c(-c4ccc(F)cc4OC)n[nH]c3c2)c1
  IC50: < 10 µM

## CCNC(=O)c1ccc(C)c(-c2ccc3c(-c4cc(C)nn4C)n[nH]c3c2)c1
  IC50: < 10 µM

## Cc1c(F)cc(C(=O)NC2CC2)cc1-c1ccc2c(ccn2-c2ccc(C#N)cc2)c1
  IC50: < 10 µM

## Cc1c(F)cc(C(=O)NC2CC2)cc1-c1ccc2c(cnn2Cc2cc[n+]([O-])cc2)c1
  IC50: < 10 µM

## CCNC(=O)c1cc(F)c(C)c(-c2ccc3c(-c4ccc(C(F)(F)F)cc4)n[nH]c3c2)c1
  IC50: < 10 µM

## Cc1c(F)cc(C(=O)Nc2ccc(F)cc2)cc1-c1ccc2c(cnn2-c2ccccc2)c1
  IC50: < 10 µM

## CCNC(=O)c1ccc(C)c(-c2ccc3c(-c4ccc(S(C)(=O)=O)cc4)n[nH]c3c2)c1
  IC50: < 10 µM

## Cc1c(F)cc(C(=O)NC2CC2)cc1-c1ccc2c(ccn2-c2cccnc2)c1
  IC50: < 10 µM

## CCNC(=O)c1ccc(-c2n[nH]c3cc(-c4cc(C(=O)NCC)ccc4C)ccc23)nc1
  IC50: < 10 µM

## Cc1c(F)cc(C(=O)NC2CC2)cc1-c1ccc2c(-c3ccc(O)cc3)noc2c1
  IC50: < 10 µM

## Cc1c(F)cc(C(=O)Nc2ccnn2C)cc1-c1ccc2c(-c3ccc(F)cc3)n[nH]c2c1
  IC50: < 10 µM

## Cc1c(F)cc(C(=O)NC2CC2)cc1-c1ccc2c(cnn2Cc2ccc[n+]([O-])c2)c1
  IC50: < 10 µM

## Cc1c(F)cc(C(=O)NC2CC2)cc1-c1ccc2c(cnn2-c2ccc(NCCCN(C)C)cc2)c1
  IC50: < 10 µM

## Cc1c(F)cc(C(=O)NC2CC2)cc1-c1ccc2c(cnn2Cc2ccc(F)cc2)c1
  IC50: < 10 µM

## CCNC(=O)c1cc(F)c(C)c(-c2ccc3c(-c4ccc(C)cc4)n[nH]c3c2)c1
  IC50: < 10 µM

## CCCCNC(=O)c1cc(F)c(C)c(-c2ccc3c(cnn3-c3ccccc3)c2)c1
  IC50: < 10 µM

## CCNC(=O)c1cc(F)c(C)c(-c2ccc3c(-c4ccccn4)n[nH]c3c2)c1
  IC50: < 10 µM

## Cc1cc(F)ccc1-n1ncc2cc(-c3cc(C(=O)NC4CC4)cc(F)c3C)ccc21
  IC50: < 10 µM

## Cc1cc(-n2ncc3cc(-c4cc(C(=O)NC5CC5)cc(F)c4C)ccc32)nc(C)n1
  IC50: < 10 µM

## COc1ccc(-c2noc3cc(-c4cc(C(=O)NC5CC5)cc(F)c4C)ccc23)cc1
  IC50: < 10 µM

## CCNC(=O)c1ccc(C)c(-c2ccc3c(-c4ccc(N5CCOCC5)nc4)n[nH]c3c2)c1
  IC50: < 10 µM

## CCNC(=O)c1cc(F)c(C)c(-c2ccc3c(-c4ccnc(C)c4)n[nH]c3c2)c1
  IC50: < 10 µM
